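Values below derive from 48-hour exposures of cells grown in 96-well plates, with endpoints linearly interpolated between the two concentrations bracketing the appropriate inhibition level. The concentration for 50% growth inhibition is given as GI50.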 Activity calls are given as the source filed them. No stated cut-off is given here; in the data, active = GI50 up to about 1.1 µM and inactive = higher.
Columns and labels:
Experiment in all cases: growth of human tumour cells (NCI), 48 h
[1] = tested on: NCI-H226
[2] = tested on: HCC 2998
[3] = tested on: MOLT-4
[4] = tested on: SK-MEL-28
[5] = tested on: Malme-3M
[6] = tested on: RPMI-8226
[7] = tested on: CCRF-CEM
[8] = tested on: IGROV-1
[9] = tested on: K562
[10] = tested on: NCI-H522
[11] = tested on: OVCAR-4
[12] = tested on: U-251
[13] = tested on: SF-295
[14] = tested on: NCI-H460
[15] = tested on: OVCAR-3
[16] = tested on: HOP-92
[17] = tested on: COLO 205
[18] = tested on: OVCAR-8
[19] = tested on: MDA-MB-435
[20] = tested on: A498
[21] = tested on: SF-539
[22] = tested on: SK-OV-3
[23] = tested on: HCT-116
[24] = tested on: SN12C
[25] = tested on: KM12
[26] = tested on: DU-145
[27] = tested on: SR
[28] = tested on: SW-620
[29] = tested on: OVCAR-5
[30] = tested on: SF-268
[31] = tested on: UO-31
[32] = tested on: HCT-15
[33] = tested on: RXF 393
[34] = tested on: SK-MEL-2
[35] = tested on: 786-0
[36] = tested on: LOX IMVI
[37] = tested on: ACHN
[38] = tested on: T47D
[39] = tested on: PC-3
[40] = tested on: A549
[41] = tested on: SNB-19
[42] = tested on: MCF7
[43] = tested on: NCI-H23
[44] = tested on: CAKI-1
[45] = tested on: M14
[46] = tested on: HT-29
[47] = tested on: MDA-MB-231
[48] = tested on: NCI/ADR-RES
[49] = tested on: MDA-N
[50] = tested on: EKVX
[51] = tested on: BT-549
[52] = tested on: UACC-62
[53] = tested on: TK-10
[54] = tested on: HOP-62
[55] = tested on: UACC-257
[56] = tested on: SK-MEL-5
[57] = tested on: HL-60
[58] = tested on: SNB-75

NCCCCc1cc(O)c2c(c1O)C(=O)c1ccccc1C2=O
GI50 [1]: 4.56 µM (inactive) | GI50 [2]: 12.6 µM (inactive) | GI50 [3]: 2.81 µM (inactive) | GI50 [4]: 17.5 µM (inactive) | GI50 [5]: 14.7 µM (inactive) | GI50 [6]: 7.13 µM (inactive) | GI50 [7]: 3.77 µM (inactive) | GI50 [8]: 8 µM (inactive) | GI50 [9]: 3.1 µM (inactive) | GI50 [10]: 10 µM (inactive) | GI50 [11]: 15.4 µM (inactive) | GI50 [12]: 9.75 µM (inactive) | GI50 [13]: 14.1 µM (inactive) | GI50 [14]: 10.5 µM (inactive) | GI50 [15]: 6.75 µM (inactive) | GI50 [16]: 14.4 µM (inactive) | GI50 [17]: 3.94 µM (inactive) | GI50 [18]: 5.09 µM (inactive) | GI50 [19]: 22.6 µM (inactive) | GI50 [20]: 18.2 µM (inactive) | GI50 [21]: 6.75 µM (inactive) | GI50 [22]: 14.9 µM (inactive) | GI50 [23]: 4.75 µM (inactive) | GI50 [24]: 10.6 µM (inactive) | GI50 [25]: 5.41 µM (inactive) | GI50 [26]: 12 µM (inactive) | GI50 [27]: 3.18 µM (inactive) | GI50 [28]: 6.53 µM (inactive) | GI50 [29]: 13.3 µM (inactive) | GI50 [30]: 13.8 µM (inactive) | GI50 [31]: 6.73 µM (inactive) | GI50 [32]: 9.25 µM | GI50 [33]: 12.9 µM (inactive) | GI50 [34]: 17.4 µM (inactive) | GI50 [35]: 6 µM (inactive) | GI50 [36]: 7.59 µM (inactive) | GI50 [37]: 11.2 µM (inactive) | GI50 [38]: 18.1 µM (inactive) | GI50 [39]: 10.4 µM (inactive) | GI50 [40]: 5.05 µM (inactive) | GI50 [41]: 14.2 µM (inactive) | GI50 [42]: 5.41 µM (inactive) | GI50 [43]: 14.3 µM (inactive) | GI50 [44]: 12.6 µM (inactive) | GI50 [45]: 16.5 µM (inactive) | GI50 [46]: 4.19 µM (inactive) | GI50 [47]: 9.1 µM (inactive) | GI50 [48]: 12.6 µM (inactive) | GI50 [49]: 14.9 µM (inactive) | GI50 [50]: 17.1 µM (inactive) | GI50 [51]: 22.2 µM (inactive) | GI50 [52]: 17.5 µM (inactive) | GI50 [53]: 15.4 µM (inactive) | GI50 [54]: 8.39 µM (inactive) | GI50 [55]: 17.5 µM (inactive) | GI50 [56]: 12.4 µM (inactive)

COCOc1ccc(C2(O)Oc3cc(OCOC)ccc3C2C)c(O)c1 (centres undefined)
GI50 [1]: 14.8 µM (inactive) | GI50 [2]: 13.5 µM (inactive) | GI50 [3]: 10.3 µM (inactive) | GI50 [4]: 17.2 µM (inactive) | GI50 [5]: 15.3 µM (inactive) | GI50 [6]: 11.7 µM (inactive) | GI50 [7]: 14.9 µM (inactive) | GI50 [8]: 17.6 µM (inactive) | GI50 [9]: 10.7 µM (inactive) | GI50 [10]: 18.2 µM (inactive) | GI50 [11]: 17.3 µM (inactive) | GI50 [12]: 15 µM (inactive) | GI50 [13]: 14.5 µM (inactive) | GI50 [14]: 13.4 µM (inactive) | GI50 [15]: 13.4 µM (inactive) | GI50 [16]: 16.2 µM (inactive) | GI50 [17]: 18.2 µM (inactive) | GI50 [18]: 16.8 µM (inactive) | GI50 [19]: 14.9 µM (inactive) | GI50 [20]: 15.5 µM (inactive) | GI50 [21]: 15.7 µM (inactive) | GI50 [22]: 17.5 µM (inactive) | GI50 [23]: 14.3 µM (inactive) | GI50 [24]: 16.4 µM (inactive) | GI50 [25]: 16.7 µM (inactive) | GI50 [26]: 13.1 µM (inactive) | GI50 [27]: 6.95 µM (inactive) | GI50 [28]: 18.4 µM (inactive) | GI50 [29]: 17.1 µM (inactive) | GI50 [30]: 15.9 µM (inactive) | GI50 [31]: 11.6 µM (inactive) | GI50 [32]: 10.5 µM | GI50 [33]: 16.4 µM (inactive) | GI50 [34]: 18.4 µM (inactive) | GI50 [35]: 17.8 µM (inactive) | GI50 [36]: 16.9 µM (inactive) | GI50 [37]: 12.9 µM (inactive) | GI50 [57]: 10.5 µM (inactive) | GI50 [38]: 12.3 µM (inactive) | GI50 [58]: 15.3 µM (inactive) | GI50 [39]: 13.2 µM (inactive) | GI50 [40]: 15.9 µM (inactive) | GI50 [41]: 16 µM (inactive) | GI50 [42]: 14.3 µM (inactive) | GI50 [43]: 11.2 µM (inactive) | GI50 [44]: 16.3 µM (inactive) | GI50 [45]: 16.6 µM (inactive) | GI50 [46]: 18.1 µM (inactive) | GI50 [47]: 12.3 µM (inactive) | GI50 [48]: 13.5 µM (inactive) | GI50 [49]: 15.3 µM (inactive) | GI50 [50]: 14.6 µM (inactive) | GI50 [51]: 14.2 µM (inactive) | GI50 [52]: 12.9 µM (inactive) | GI50 [53]: 17.9 µM (inactive) | GI50 [54]: 18 µM (inactive) | GI50 [55]: 12.1 µM (inactive) | GI50 [56]: 11 µM (inactive)
